Results as given in patent US20220340764A1, “HYDROPHOBIC AND OLEOPHOBIC SURFACES AND USES THEREOF” (Technion Research & Development Foundation Limited, priority 2012, published 2022).
Each block holds one compound with its values, some of them ahead of it.

What was measured:
B. cereus 407 biofilms = assay: Biofilm formation on wax-coated glass substrates, LIVE/DEAD staining, CLSM; assay type: cell-based, Bacillus cereus; settings: glass substrate with thermally evaporated wax, in comparison to control glass surface; FIGS. 7A-7E
Protocol: Bacillus cereus 407 and ATCC 10987 stains were obtained from Michel Gohar's lab collection (INRA, France).
(§1) For biofilm generation, bacteria were grown to stationary phase in LB (Lysogeny broth) medium at 37° C. in shaking culture. The generated cultures were seeded (by dilution 1:100) into sterile polystyrene multidishes containing different substrates and inoculated into fresh media (37° C., 5 95% air/5% CO2 (v/v) statically without agitation.
(§2) To visualize the constructed biofilms, the substrates were removed from the wells, washed with PBS buffer and stained with FilmTracer™ LIVE/DEAD Biofilm Viability Kit (Molecular Probes, OR) according to the manufacturer's protocol. The stained samples were observed using an Olympus IX81 confocal laser scanning microscope (CLSM, Japan). Live cells were stained green, while dead cells were stained red. Fluorescence emission of the stained samples was measured using an Olympus IX81 CLSM equipped with 488-nm argon-ion and 543-nm helium-neon lasers.
(§3) Two different biofilm forming pathogenic bacteria, B. cereus (Gram positive) and P. aeruginosa (Gram negative), which are often encountered in clinical and industrial settings, were tested for their ability to form biofilm on glass substrates having thermally evaporated thereon the following wax materials: C24F50, C36H74, C40H82 and C44H90.

[1] = Static contact angle (wettability) of wax-coated surfaces, Attension Theta tensiometer; assay type: physicochemical; design: C.A. Cyclohexane / C.A. hexadecane / C.A. Water / C.A. Glycerol / C.A. Ethylene Glycol / C.A. Benzyl Chloride / C.A. Clorobenzene: unit not given here; settings: for C.A. Ethylene Glycol: liquid Ethylene Glycol; for C.A. Glycerol: liquid Glycerol; for C.A. Water: liquid Water; for C.A. Benzyl Chloride: liquid Benzyl Chloride; for C.A. Clorobenzene: liquid Clorobenzene; for C.A. Cyclohexane: liquid Cyclohexane; for C.A. hexadecane: liquid hexadecane
From the text: Typically, but not exclusively, in order to measure the static contact angle, a drop of liquid is formed on the tip of a hypodermic needle attached to a screw syringe. The syringe is fastened to a stand which reduces any irregularities that are produced by manual drop deposition. The substrate is then raised until it touches the drop using the Y control of the stage. The drop is the then brought into the field of view and onto the focal point of the microscope by x-y translation of the stage and image is captured. The static contact angle is calculated by methods known in the art. An exemplary methodology and system for measuring a static contact angle in described in Example s in the Examples section that follows.
The wettability of the surfaces was characterized using water contact angle (C.A.) measurements recorded with an Attension Theta tensiometer. The water wettability measurements were performed with a constant high-purity water drop volume of 7 μL.
Oil contact angles were determined for the following liquids: Glycerol, ethylene glycol, olive oil, benzyl chloride, clorobenzene, cyclohexane and hexadecane, using an Attension Theta tensiometer with approximately 8 μL liquid drops.
Time-dependent contact angle measurements were performed during a period of two weeks.
(§4) Contact angles and RMS roughness were measured as described in Example 2 hereinabove.

[2] = RMS roughness of wax-coated surfaces by confocal microscopy; assay type: physicochemical; settings: for Roughness (RMS): spray coated on Si wafer, 5 seconds×4 cycles, wax solution; for RMS roughness growth: thermally-evaporated on silicon substrate
Protocol: RMS roughness (Rq) is typically calculated according to the following formula: […]
Confocal microscopy (Leica DCM3D) was used for roughness measurements. Time-dependent measurements were performed on counterpart samples having non-fluorinated wax coatings that were used for XRD time-dependent measurements. In situ time-resolved confocal microscopy was used for observation of the change in surface roughness over a constant 100 μm×100 μm area for duration of 160 hours. A topographical image was collected every hour. These experiments encompassed the same duration and time intervals as the time-dependent XRD measurements hereinabove.
Similar time-dependent measurements were performed for samples coated with fluorinated wax, maintained at a temperature of 90° C., during 60 hours. These experiments were supported by time-dependent XRD measurements performed at 90° C. during 60 hours, with 1 hour time intervals.
as §4

P. aeruginosa biofilm = assay: Biofilm formation on wax-coated glass substrates, LIVE/DEAD staining, CLSM; assay type: cell-based, Pseudomonas aeruginosa PA14; settings: glass substrate with thermally evaporated wax; FIGS. 8A-E
Protocol: Pseudomonas aeruginosa PA14 was obtained from Shlomo Sela's lab strain collection (Agricultural Research Organization, Israel).
as §1, §2, §3

[3] = spray coated on Si wafer, 5 seconds×4 cycles, wax solution
[4] = thermally-evaporated wax on Silicon substrate
[5] = thermally evaporated on silicon wafer, maintained at 90° C., 18 hr
[6] = thermally evaporated on silicon wafer, maintained at 90° C., 20 hr
[7] = thermally evaporated on silicon wafer, maintained at 90° C., 22 hr
[8] = thermally evaporated on silicon wafer, maintained at 90° C., 30 hr
[9] = thermally evaporated on silicon wafer, maintained at 90° C., 40 hr
[10] = thermally evaporated on silicon wafer, maintained at 90° C., 50 hr
[11] = thermally evaporated on silicon wafer, maintained at 90° C., 60 hr

C.A. Ethylene Glycol [1, 3]: 58
C.A. Glycerol [1, 3]: 64
C.A. Water [1, 3]: 75
contact angle of a water drop ([1]; thermally-evaporated on gold surface, maintained at room temperature for a week): 165 °
C.A. Benzyl Chloride [1, 4]: Fully wetted
C.A. Clorobenzene [1, 4]: Fully wetted
C.A. Cyclohexane [1, 4]: Fully wetted
C.A. Ethylene Glycol [1, 4]: 121
C.A. Glycerol [1, 4]: 133
C.A. Water [1, 4]: 171
C.A. hexadecane [1, 4]: Fully wetted
Roughness (RMS) [2]: 0.07-0.1 μm
Structure (SMILES): CCCCCCCCCCCCCCCCCCCCCCCCCCCCCCCCCCCC [C36, hexatriacontane]
B. cereus biofilm formation on coated substrate (B. cereus 407 biofilms): Less significant inhibition of biofilm formation

C.A. Ethylene Glycol [1, 3]: 60
C.A. Glycerol [1, 3]: 96
C.A. Water [1, 3]: 96
C.A. Benzyl Chloride [1, 4]: Fully wetted
C.A. Clorobenzene [1, 4]: Fully wetted
C.A. Cyclohexane [1, 4]: Fully wetted
C.A. Ethylene Glycol [1, 4]: 103
C.A. Glycerol [1, 4]: 130
C.A. Water [1, 4]: 161
C.A. hexadecane [1, 4]: Fully wetted
Structure (SMILES): CCCCCCCCCCCCCCCCCCCCCCCCCCCCCCCCCCCCCCCCCCCC [C44, tetratetracontane]
B. cereus biofilm formation on coated substrate (B. cereus 407 biofilms): could not adhere successfully to form confluent biofilms
P. aeruginosa biofilm formation on coated substrate (P. aeruginosa biofilm): substantially prevented the biofilm formation

C.A. Ethylene Glycol [1, 3]: 62
C.A. Glycerol [1, 3]: 69
C.A. Water [1, 3]: 85
C.A. Benzyl Chloride [1, 4]: Fully wetted
C.A. Clorobenzene [1, 4]: Fully wetted
C.A. Cyclohexane [1, 4]: Fully wetted
C.A. Ethylene Glycol [1, 4]: 112
C.A. Glycerol [1, 4]: 144
C.A. Water [1, 4]: 167
C.A. hexadecane [1, 4]: Fully wetted
Roughness (RMS) [2]: 0.06-0.09 μm
Structure (SMILES): CCCCCCCCCCCCCCCCCCCCCCCCCCCCCCCCCCCCCCCC [C40, tetracontane]
B. cereus biofilm formation on coated substrate (B. cereus 407 biofilms): could not adhere successfully to form confluent biofilms

The remaining lines, values behind:

Structure (SMILES): CCCCCCCCCCCCCCCCCCCCCCCCCCCCCCCCCCCCCCCCCCCCCCCCCC [C50, pentacontane]
C.A. Benzyl Chloride [1, 4]: Fully wetted
C.A. Clorobenzene [1, 4]: Fully wetted
C.A. Cyclohexane [1, 4]: Fully wetted
C.A. Ethylene Glycol [1, 4]: 100
C.A. Glycerol [1, 4]: 111
C.A. Water [1, 4]: 151
C.A. hexadecane [1, 4]: Fully wetted

Structure (SMILES): FC(F)(F)C(F)(F)C(F)(F)C(F)(F)C(F)(F)C(F)(F)C(F)(F)C(F)(F)C(F)(F)C(F)(F)C(F)(F)C(F)(F)C(F)(F)C(F)(F)C(F)(F)C(F)(F)C(F)(F)C(F)(F)C(F)(F)C(F)(F)F [C20, perfluoroeicosane, reference compound]
C.A. Benzyl Chloride [1, 4]: Fully wetted
C.A. Clorobenzene [1, 4]: Fully wetted
C.A. Cyclohexane [1, 4]: Fully wetted
C.A. Ethylene Glycol [1, 4]: 122
C.A. Glycerol [1, 4]: 120
C.A. Water [1, 4]: 128
C.A. hexadecane [1, 4]: Fully wetted

Structure (SMILES): FC(F)(F)C(F)(F)C(F)(F)C(F)(F)C(F)(F)C(F)(F)C(F)(F)C(F)(F)C(F)(F)C(F)(F)C(F)(F)C(F)(F)C(F)(F)C(F)(F)C(F)(F)C(F)(F)C(F)(F)C(F)(F)C(F)(F)C(F)(F)C(F)(F)C(F)(F)C(F)(F)C(F)(F)F [C24, perfluorotetracosane]
B. cereus biofilm formation on coated substrate (B. cereus 407 biofilms): could not adhere successfully to form confluent biofilms
P. aeruginosa biofilm formation on coated substrate (P. aeruginosa biofilm): substantially prevented the biofilm formation
C.A. Ethylene Glycol [1, 3]: 100
C.A. Glycerol [1, 3]: 140
C.A. Water [1, 3]: 141
C.A. Ethylene Glycol 18 hr [1, 5]: 167
C.A. Glycerol 18 hr [1, 5]: 163
C.A. Hexadecane 18 hr [1, 5]: 122
C.A. Water 18 hr [1, 5]: 160
C.A. Ethylene Glycol 20 hr [1, 6]: 159
C.A. Glycerol 20 hr [1, 6]: 164
C.A. Hexadecane 20 hr [1, 6]: 115
C.A. Water 20 hr [1, 6]: 165
C.A. Ethylene Glycol 22 hr [1, 7]: 155
C.A. Glycerol 22 hr [1, 7]: 165
C.A. Hexadecane 22 hr [1, 7]: 118
C.A. Water 22 hr [1, 7]: 161
C.A. Ethylene Glycol 30 hr [1, 8]: 160
C.A. Glycerol 30 hr [1, 8]: 167
C.A. Hexadecane 30 hr [1, 8]: 119
C.A. Water 30 hr [1, 8]: 168
C.A. Ethylene Glycol 40 hr [1, 9]: 156
C.A. Glycerol 40 hr [1, 9]: 167
C.A. Hexadecane 40 hr [1, 9]: 124
C.A. Water 40 hr [1, 9]: 168
C.A. Ethylene Glycol 50 hr [1, 10]: 161
C.A. Glycerol 50 hr [1, 10]: 163
C.A. Hexadecane 50 hr [1, 10]: 123
C.A. Water 50 hr [1, 10]: 163
C.A. Ethylene Glycol 60 hr [1, 11]: 166
C.A. Glycerol 60 hr [1, 11]: 166
C.A. Hexadecane 60 hr [1, 11]: 117
C.A. Water 60 hr [1, 11]: 167
time-dependent contact angle of water, glycerol, ethylene glycol and hexadecane ([1]; thermally evaporated on silicon wafer, room temperature, two-week period): slight variation of the measured contact angles
contact angle of olive oil drop ([1]; thermally-evaporated on silicon substrate, FIG. 3A insert): high contact angle
C.A. Benzyl Chloride [1, 4]: 139
C.A. Clorobenzene [1, 4]: 138
C.A. Cyclohexane [1, 4]: 112
C.A. Ethylene Glycol [1, 4]: 171
C.A. Glycerol [1, 4]: 172
C.A. Water [1, 4]: 172
C.A. hexadecane [1, 4]: 112
Roughness (RMS) [2]: 0.12 μm
surface roughness (R.M.S.) ([2]; thermally-evaporated fluorinated wax, at 90° C. after a 60 hour time period): 0.9 μm
surface roughness (R.M.S.), initial ([2]; thermally-evaporated fluorinated wax, before maintaining at 90° C.): 0.7 μm
RMS roughness growth ([2]; 20 hours at 70° C.): about 0.06 μm
RMS roughness growth ([2]; 20 hours at 80° C.): about 0.08 μm
RMS roughness growth ([2]; maintained at 90° C.): about 0.4 μm

Structure (SMILES): FC(F)(F)C(F)(F)C(F)(F)C(F)(F)C(F)(F)C(F)(F)C(F)(F)C(F)(F)C(F)(F)C(F)(F)C(F)(F)C(F)(F)C(F)(F)C(F)(F)C(F)(F)F [C15, perfluoropentadecane]
C.A. Ethylene Glycol [1, 3]: 59
C.A. Glycerol [1, 3]: 110
C.A. Water [1, 3]: 114
Roughness (RMS) [2]: 0.12 μm
